Earlier results in US11793802B2, “Treatment of acute myeloid leukemia (AML) with venetoclax failure” (Sumitomo Pharma Oncology, Inc., priority 2019, dated 2023).

Experiments:
[1] = test system: hematological cancers, including AML; details: patients treated with venetoclax

## CN1CC[C@H](c2c(OP(=O)(O)O)cc(O)c3c(=O)cc(-c4ccccc4Cl)oc23)[C@H](O)C1 [Formula (I-b)]
other
  oral bioavailability: orally bioavailable

## Nc1ncn([C@@H]2O[C@H](CO)[C@@H](O)[C@H]2O)c(=O)n1 [azacitidine]
MCL-1 protein
  effect on MCL-1 protein levels in blasts: reduce MCL-1 protein levels

## CC1(C)CCC(CN2CCN(c3ccc(C(=O)NS(=O)(=O)c4ccc(NCC5CCOCC5)c([N+](=O)[O-])c4)c(Oc4cnc5[nH]ccc5c4)c3)CC2)=C(c2ccc(Cl)cc2)C1 [venetoclax]
[1]
  patients demonstrated complete remission: 8-20%
  patients showed no response: 20-30%
[1]; after 18 months
  patients showed disease progression: ~50%
